Our source for the Ki values is patent US8138189B2, “Substituted benzene compounds as modulators of the glucocorticoid receptor” (Hoffman-La Roche Inc., priority 2009, dated 2012).

As usually defined, the Ki is a dissociation constant, usually derived from enzyme kinetics or from competition with a known ligand.

This experiment deals with T1, full length human recombinant glucocorticoid receptor (Homo sapiens, UniProt P04150).
T1 construct: partially purified full length human recombinant glucocorticoid receptor; purchased Panvera/Invitrogen PV4302
T1 sequence (P04150 1-777): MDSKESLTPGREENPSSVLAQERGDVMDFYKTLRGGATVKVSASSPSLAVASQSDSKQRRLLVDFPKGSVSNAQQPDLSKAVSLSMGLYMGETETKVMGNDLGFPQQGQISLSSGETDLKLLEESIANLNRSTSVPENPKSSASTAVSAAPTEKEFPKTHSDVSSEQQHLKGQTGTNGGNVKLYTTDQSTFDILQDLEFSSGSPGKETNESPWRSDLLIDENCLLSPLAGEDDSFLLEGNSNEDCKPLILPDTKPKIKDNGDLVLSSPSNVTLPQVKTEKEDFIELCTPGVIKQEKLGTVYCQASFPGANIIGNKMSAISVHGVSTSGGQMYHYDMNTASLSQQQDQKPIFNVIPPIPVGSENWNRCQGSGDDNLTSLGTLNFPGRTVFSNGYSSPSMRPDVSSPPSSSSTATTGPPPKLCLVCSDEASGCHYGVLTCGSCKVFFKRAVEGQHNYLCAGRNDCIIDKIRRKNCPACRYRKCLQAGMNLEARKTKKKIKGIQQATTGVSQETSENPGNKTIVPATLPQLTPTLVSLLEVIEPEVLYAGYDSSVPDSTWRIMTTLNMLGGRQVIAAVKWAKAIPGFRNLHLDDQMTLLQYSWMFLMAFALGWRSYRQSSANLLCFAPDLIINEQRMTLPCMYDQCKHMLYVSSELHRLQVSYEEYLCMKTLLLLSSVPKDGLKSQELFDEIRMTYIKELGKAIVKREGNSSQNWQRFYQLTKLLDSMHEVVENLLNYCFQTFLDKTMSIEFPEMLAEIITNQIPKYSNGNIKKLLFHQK
The experiment can be described thus: Glucocorticoid Receptor Binding Assay (fluorescence polarization competitor assay, Fluormone GS Far Red tracer). The gist of the method: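 Partially purified full-length recombinant human GR with a stabilizing coactivator peptide was incubated with Fluormone GS Far Red tracer and serially diluted compound for 3 h at 22 °C in the dark, pH 7.4. Fluorescence polarization was read at 610-660 nm. IC50 came from sigmoidal fitting, and Ki from Cheng-Prusoff.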
A general note: Polarisation of emitted light reports the rotation of a fluorescent probe.
Take `COC(=O)c1ccc(Oc2ccc([C@@H](C)[C@@](O)(c3ccc(=O)n(C)c3)C(F)(F)F)c(Cl)c2Cl)cc1F` (stereo in doubt) [Example 199, 4-{2,3-Dichloro-4-[3,3,3-trifluoro-2-hydroxy-1-methyl-2-(1-methyl-6-oxo-1,6-dihydro-pyridin-3-yl)-propyl]-phenoxy}-2-fluoro-benzoic acid methyl ester]: the inhibition constant (Ki) came out at 2.6 nM.
Under `C[C@H](c1ccc(Oc2ccc(C(=O)O)c(F)c2)c(Cl)c1Cl)[C@@](O)(c1ccc(=O)n(C)c1)C(F)(F)F` (stereo in doubt) [Example 200, 4-{2,3-Dichloro-4-[3,3,3-trifluoro-2-hydroxy-1-methyl-2-(1-methyl-6-oxo-1,6-dihydro-pyridin-3-yl)-propyl]-phenoxy}-2-fluoro-benzoic acid] stands 2.3 nM; under `C[C@@H](c1cc(F)c(Oc2ccc(C(=O)O)c(F)c2)cc1Cl)[C@](O)(c1ccc(=O)n(C)c1)C(F)(F)F` (stereo in doubt) [Example 202, 4-{5-Chloro-2-fluoro-4-[3,3,3-trifluoro-2-hydroxy-1-methyl-2-(1-methyl-6-oxo-1,6-dihydro-pyridin-3-yl)-propyl]-phenoxy}-2-fluoro-benzoic acid], 47.9 nM.
Under `COC(=O)c1ccc(Oc2ccc([C@H](C)[C@](O)(c3cc(C)c(=O)n(C)c3)C(F)(F)F)c(Cl)c2)cc1F` (stereo in doubt) [Example 203, 4-{3-Chloro-4-[2-(1,5-dimethyl-6-oxo-1,6-dihydro-pyridin-3-yl)-3,3,3-trifluoro-2-hydroxy-1-methyl-propyl]-phenoxy}-2-fluoro-benzoic acid methyl ester] stands 0.8 nM.
The result for `Cc1cc([C@@](O)([C@@H](C)c2ccc(Oc3cc(C(F)(F)F)c(C(=O)O)cn3)cc2Cl)C(F)(F)F)cn(C)c1=O` (stereo in doubt) [Example 206, 6-{3-Chloro-4-[2-(1,5-dimethyl-6-oxo-1,6-dihydro-pyridin-3-yl)-3,3,3-trifluoro-2-hydroxy-1-methyl-propyl]-phenoxy}-4-trifluoromethyl-nicotinic acid] reads 0.7 nM; that for `COC(=O)c1ccc(Oc2ccc([C@H](C)[C@](O)(c3cc(C)c(=O)n(C)c3)C(F)(F)F)c(Cl)c2)cc1Cl` (stereo in doubt) [Example 207, 2-Chloro-4-{3-chloro-4-[2-(1,5-dimethyl-6-oxo-1,6-dihydro-pyridin-3-yl)-3,3,3-trifluoro-2-hydroxy-1-methyl-propyl]-phenoxy}-benzoic acid methyl ester], 0.9 nM; that for `Cc1cc([C@@](O)([C@@H](C)c2ccc(Oc3ccc(C(=O)O)c(C(F)(F)F)n3)cc2Cl)C(F)(F)F)cn(C)c1=O` (stereo in doubt) [Example 209, 6-{3-Chloro-4-[2-(1,5-dimethyl-6-oxo-1,6-dihydro-pyridin-3-yl)-3,3,3-trifluoro-2-hydroxy-1-methyl-propyl]-phenoxy}-2-trifluoromethyl-nicotinic acid], 1.4 nM.
As to `Cc1cc([C@@](O)([C@@H](C)c2ccc(Oc3ccc(Cl)c(C(=O)O)c3)cc2Cl)C(F)(F)F)cn(C)c1=O` (stereo in doubt) [Example 211, 2-Chloro-5-{3-chloro-4-[2-(1,5-dimethyl-6-oxo-1,6-dihydro-pyridin-3-yl)-3,3,3-trifluoro-2-hydroxy-1-methyl-propyl]-phenoxy}-benzoic acid], the Ki was determined as 0.7 nM.
Consider `CCOC(=O)c1cc(Oc2ccc([C@H](C)[C@](O)(c3cc(C)c(=O)n(C)c3)C(F)(F)F)c(Cl)c2)ccc1F` (stereo in doubt) [Example 212, 5-{3-Chloro-4-[2-(1,5-dimethyl-6-oxo-1,6-dihydro-pyridin-3-yl)-3,3,3-trifluoro-2-hydroxy-1-methyl-propyl]-phenoxy}-2-fluoro-benzoic acid ethyl ester], for which the Ki was found to be 1.9 nM.
Under `Cc1cc([C@@](O)([C@@H](C)c2ccc(Oc3ccc(C(=O)O)c(C(F)(F)F)c3)cc2Cl)C(F)(F)F)cn(C)c1=O` (stereo in doubt) [Example 214, 4-{3-Chloro-4-[2-(1,5-dimethyl-6-oxo-1,6-dihydro-pyridin-3-yl)-3,3,3-trifluoro-2-hydroxy-1-methyl-propyl]-phenoxy}-2-trifluoromethyl-benzoic acid] stands 0.5 nM.
The result for `C[C@H](c1ccc(Oc2ccc(C(=O)O)c(C(F)(F)F)c2)cc1Cl)[C@@](O)(c1ccc(=O)n(C)c1)C(F)(F)F` (stereo in doubt) [Example 220, 4-{3-Chloro-4-[3,3,3-trifluoro-2-hydroxy-1-methyl-2-(1-methyl-6-oxo-1,6-dihydro-pyridin-3-yl)-propyl]-phenoxy}-2-trifluoromethyl-benzoic acid] reads 4 nM; that for `C[C@@H](c1ccc(Oc2ccc(C(=O)O)c(Cl)c2)cc1Cl)[C@](O)(c1cc(Cl)c(=O)n(C)c1)C(F)(F)F` (stereo in doubt) [Example 222, 2-Chloro-4-{3-chloro-4-[2-(5-chloro-1-methyl-6-oxo-1,6-dihydro-pyridin-3-yl)-3,3,3-trifluoro-2-hydroxy-1-methyl-propyl]-phenoxy}-benzoic acid], 0.6 nM; that for `COC(=O)c1cnc(Oc2ccc([C@H](C)[C@](O)(c3cc(Cl)c(=O)n(C)c3)C(F)(F)F)c(Cl)c2)cc1C(F)(F)F` (stereo in doubt) [Example 223, 6-{3-Chloro-4-[2-(5-chloro-1-methyl-6-oxo-1,6-dihydro-pyridin-3-yl)-3,3,3-trifluoro-2-hydroxy-1-methyl-propyl]-phenoxy}-4-trifluoromethyl-nicotinic acid methyl ester], 4.7 nM.
Under `C[C@@H](c1ccc(Oc2cc(C(F)(F)F)c(C(=O)O)cn2)cc1Cl)[C@](O)(c1cc(Cl)c(=O)n(C)c1)C(F)(F)F` (stereo in doubt) [Example 224, 6-{3-Chloro-4-[2-(5-chloro-1-methyl-6-oxo-1,6-dihydro-pyridin-3-yl)-3,3,3-trifluoro-2-hydroxy-1-methyl-propyl]-phenoxy}-4-trifluoromethyl-nicotinic acid] stands 3.8 nM; under `C[C@H](c1ccc(-c2ccc(C(=O)O)c(F)c2)cc1Cl)[C@@](O)(c1cnc2ccccc2c1)C(F)(F)F` (stereo in doubt) [Example 225, 3′-Chloro-3-fluoro-4′-(3,3,3-trifluoro-2-hydroxy-1-methyl-2-quinolin-3-yl-propyl)-biphenyl-4-carboxylic acid], 7.1 nM.
For the molecule `C[C@H](c1ccc(Oc2ccc(C(=O)O)c(Cl)c2)cc1Cl)[C@@](O)(c1ccc2nccnc2c1)C(F)(F)F` (stereo in doubt) [Example 228, 2-Chloro-4-[3-chloro-4-(3,3,3-trifluoro-2-hydroxy-1-methyl-2-quinoxalin-6-yl-propyl)-phenoxy]-benzoic acid], the inhibition constant Ki came to 64.5 nM.
The result for `C[C@H](c1ccc(-c2ccc(C(=O)O)c(F)c2)cc1Cl)[C@@](O)(c1ccc(C#N)n1C)C(F)(F)F` (stereo in doubt) [Example 230, 3′-Chloro-4′-[2-(5-cyano-1-methyl-1H-pyrrol-2-yl)-3,3,3-trifluoro-2-hydroxy-1-methyl-propyl]-3-fluoro-biphenyl-4-carboxylic acid] reads 24.9 nM; that for `C[C@H](c1ccc(Oc2ccc(C(=O)O)c(Cl)c2)cc1Cl)[C@@](O)(c1ccc(C#N)n1C)C(F)(F)F` (stereo in doubt) [Example 232, 2-Chloro-4-{3-chloro-4-[2-(5-cyano-1-methyl-1H-pyrrol-2-yl)-3,3,3-trifluoro-2-hydroxy-1-methyl-propyl]-phenoxy}-benzoic acid], 14.6 nM.
The result for `C[C@H](c1ccc(Oc2ncc(C(=O)O)cc2Cl)cc1Cl)[C@@](O)(c1ccc(C#N)n1C)C(F)(F)F` (stereo in doubt) [Example 233, 5-Chloro-6-{3-chloro-4-[2-(5-cyano-1-methyl-1H-pyrrol-2-yl)-3,3,3-trifluoro-2-hydroxy-1-methyl-propyl]-phenoxy}-nicotinic acid] reads 3.9 nM; that for `Cc1cc([C@](O)([C@H](C)c2ccc(Oc3ncc(C(=O)O)cc3Cl)cc2Cl)C(F)(F)F)sc1C#N` (stereo in doubt) [Example 234, 5-Chloro-6-{3-chloro-4-[2-(5-cyano-4-methyl-thiophen-2-yl)-3,3,3-trifluoro-2-hydroxy-1-methyl-propyl]-phenoxy}-nicotinic acid], 1.3 nM; that for `C[C@H](c1ccc(Oc2ccc(C(=O)O)cn2)cc1Cl)[C@@](O)(c1ccc(C#N)n1C)C(F)(F)F` (stereo in doubt) [Example 236, 6-{3-Chloro-4-[2-(5-cyano-1-methyl-1H-pyrrol-2-yl)-3,3,3-trifluoro-2-hydroxy-1-methyl-propyl]-phenoxy}-nicotinic acid], 22.3 nM.
